The record followed here is patent EP4813972A1, “CRYSTAL FORM OF BENZENE SULFONATE CONTAINING PIPERIDINE RING COMPOUND, AND PREPARATION METHOD THEREFOR AND USE THEREOF” (Shanghai Curegene Pharmaceutical Co., Ltd., priority 2023, dated 2025).

A short description of data set [1]: Stability study of crystal forms (crystal form status by XRPD after storage). The class given is physicochemical. The conditions noted are these: 14 days. The procedure: Test method: The sample was prepared on a zero-background silicon wafer by gently pressing to obtain a flat surface. About 10-20 mg of a sample was used for XRPD analysis.
The nature of data set [2]: Solubility study of crystal forms (aqueous HCl pH 1 / 20 mM phosphate buffer pH about 7, HPLC analysis). The class given is physicochemical. The procedure:
The detailed parameters were as follows:
An aqueous HCl solution at pH 1 was prepared. […] After dissolution by stirring, the solution was adjusted to pH = 1 with 1 N NaOH or 1 N HCl. The timing was started, and after T = 3 h, the pH was measured. […] When T = 4 h, the dissolution status was observed, and a dilution factor was selected according to the dissolution status. 50% ACN was used as a diluent for HPLC analysis. When T = 24 h, the dissolution state was observed. With reference to the concentration data at 4 h and the dissolution state at 24 h, a dilution factor was selected, and HPLC analysis was performed. The solubility was calculated according to the HPLC analysis results described above.
The aqueous HCl solution at pH 1 in the step described above was replaced with a 20 mM phosphate buffer solution at pH of about 7, and the steps described above were repeated. The solubility was calculated.

Converted amounts (≈) assume the structure as drawn.

On to `COC(=O)[C@H](c1ccccc1Cl)N1CC[C@@H](SCOC(=O)OC(C)C)/C(=C\C(=O)O)C1` [Crystal form F1], for which the “Crystal form after treatment” value was “Crystal form F1” in data set [1] (25 °C/60% RH, open container); “Crystal form F1” in data set [1] (Sealed container at 2-8 °C); “Crystal form F1” in data set [1] (Sealed container at 40 °C); “Crystal form F1” in data set [1] (Sealed container at 60 °C). Moreover, the solubility at 4 h amounted to 9.89 mg/mL (≈ 21 mM) in data set [2] (20 mm phosphate buffer, pH=7, 4 h) and 11.5 mg/mL (≈ 24.4 mM) in data set [2] (aqueous hcl, pH=1, 4 h). For the same compound, the solubility at 24 h in data set [2] (20 mm phosphate buffer, pH=7, 24 h) worked out at 6.14 mg/mL (≈ 13 mM); in data set [2] (aqueous hcl, pH=1, 24 h) it was 11.4 mg/mL (≈ 24.1 mM). The Dissolution status entry in data set [2] (pH=1, 4 h) is on record as “Clear solution”; in data set [2] (pH=1, 24 h), “Clear solution”; in data set [2] (pH=7, 4 h), “Clear solution”; in data set [2] (pH=7, 24 h), “Clear solution”.
